# Source: article PMC6905088 (Biochemical pharmacology, 2019)
# Experiments:
# CYP2D6 = CYP2D6 (Homo sapiens, UniProt P10635)
# CYP1A2 = molecular target: T1, CYP1A2 (Homo sapiens, UniProt P05177); test: Recombinant isozyme kinetic assay; conditions: substrate desmethyl-terbinafine
# T1 sequence (P05177 1-516): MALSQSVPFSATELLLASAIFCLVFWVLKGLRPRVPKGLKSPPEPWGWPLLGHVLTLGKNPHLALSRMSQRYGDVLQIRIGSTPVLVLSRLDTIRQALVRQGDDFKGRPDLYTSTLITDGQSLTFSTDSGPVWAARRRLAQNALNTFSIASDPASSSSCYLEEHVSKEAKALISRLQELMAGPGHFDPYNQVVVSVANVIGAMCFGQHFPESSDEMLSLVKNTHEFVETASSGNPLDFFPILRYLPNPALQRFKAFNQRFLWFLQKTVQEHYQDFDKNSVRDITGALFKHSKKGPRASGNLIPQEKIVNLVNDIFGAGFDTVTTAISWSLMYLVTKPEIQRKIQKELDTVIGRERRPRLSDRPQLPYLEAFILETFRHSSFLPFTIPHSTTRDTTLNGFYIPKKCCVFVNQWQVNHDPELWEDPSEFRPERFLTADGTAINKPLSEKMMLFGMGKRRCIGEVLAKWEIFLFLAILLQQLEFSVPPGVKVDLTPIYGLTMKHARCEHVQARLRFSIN
# CYP2B6 = molecular target: T2, CYP2B6 (Homo sapiens, UniProt P20813); test: Recombinant isozyme kinetic assay; conditions: substrate desmethyl-terbinafine
# T2 sequence (P20813 1-491): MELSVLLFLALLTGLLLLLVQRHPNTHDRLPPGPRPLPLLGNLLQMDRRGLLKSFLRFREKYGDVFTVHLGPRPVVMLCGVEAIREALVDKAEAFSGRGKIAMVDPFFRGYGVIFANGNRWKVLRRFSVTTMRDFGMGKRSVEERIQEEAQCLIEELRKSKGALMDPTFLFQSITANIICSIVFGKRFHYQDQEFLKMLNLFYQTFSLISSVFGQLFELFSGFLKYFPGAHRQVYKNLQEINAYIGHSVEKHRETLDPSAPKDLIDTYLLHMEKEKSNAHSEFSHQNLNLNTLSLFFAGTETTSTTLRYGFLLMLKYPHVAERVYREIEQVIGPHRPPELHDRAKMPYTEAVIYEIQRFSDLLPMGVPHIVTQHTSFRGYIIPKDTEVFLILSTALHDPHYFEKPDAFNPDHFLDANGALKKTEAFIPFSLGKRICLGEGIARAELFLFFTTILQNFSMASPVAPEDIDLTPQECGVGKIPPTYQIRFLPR
# CYP2C8 = molecular target: T3, CYP2C8 (Homo sapiens, UniProt P10632); test: Recombinant isozyme kinetic assay; conditions: substrate desmethyl-terbinafine
# T3 sequence (P10632 1-490): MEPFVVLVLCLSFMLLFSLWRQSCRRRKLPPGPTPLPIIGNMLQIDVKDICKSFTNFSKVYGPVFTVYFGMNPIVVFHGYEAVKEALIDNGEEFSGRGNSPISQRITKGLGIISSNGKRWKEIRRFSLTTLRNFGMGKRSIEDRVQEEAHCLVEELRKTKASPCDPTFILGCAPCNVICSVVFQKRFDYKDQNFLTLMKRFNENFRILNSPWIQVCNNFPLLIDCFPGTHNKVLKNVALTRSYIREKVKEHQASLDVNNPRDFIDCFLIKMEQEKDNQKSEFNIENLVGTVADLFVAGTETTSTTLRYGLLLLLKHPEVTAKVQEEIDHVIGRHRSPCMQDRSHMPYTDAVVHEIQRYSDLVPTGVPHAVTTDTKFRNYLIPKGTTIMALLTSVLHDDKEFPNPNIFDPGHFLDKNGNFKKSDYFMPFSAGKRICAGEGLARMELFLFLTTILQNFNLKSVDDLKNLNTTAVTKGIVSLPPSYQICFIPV
# CYP2C9 = CYP2C9 (Homo sapiens, UniProt P11712); test: Recombinant isozyme kinetic assay
# Sequence of CYP2C9 (P11712 whole entry): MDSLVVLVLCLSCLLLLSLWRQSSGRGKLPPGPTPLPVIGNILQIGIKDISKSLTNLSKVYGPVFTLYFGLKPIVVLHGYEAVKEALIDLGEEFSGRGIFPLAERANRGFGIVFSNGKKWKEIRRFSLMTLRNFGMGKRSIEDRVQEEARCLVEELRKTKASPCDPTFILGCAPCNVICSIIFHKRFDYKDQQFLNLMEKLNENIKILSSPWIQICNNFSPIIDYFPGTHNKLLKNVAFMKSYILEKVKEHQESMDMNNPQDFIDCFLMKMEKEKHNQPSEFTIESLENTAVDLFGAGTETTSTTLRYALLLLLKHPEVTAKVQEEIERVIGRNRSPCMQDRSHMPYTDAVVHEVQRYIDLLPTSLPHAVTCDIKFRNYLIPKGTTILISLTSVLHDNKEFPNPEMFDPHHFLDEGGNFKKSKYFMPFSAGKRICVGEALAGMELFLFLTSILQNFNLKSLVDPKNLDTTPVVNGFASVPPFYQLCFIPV
# [1] = normalized MS peak area, scaled x10^6
# [2] = CYP2C9, Step 2.2b, substrate desmethyl-terbinafine
# Sequence of CYP2D6 (P10635 whole entry): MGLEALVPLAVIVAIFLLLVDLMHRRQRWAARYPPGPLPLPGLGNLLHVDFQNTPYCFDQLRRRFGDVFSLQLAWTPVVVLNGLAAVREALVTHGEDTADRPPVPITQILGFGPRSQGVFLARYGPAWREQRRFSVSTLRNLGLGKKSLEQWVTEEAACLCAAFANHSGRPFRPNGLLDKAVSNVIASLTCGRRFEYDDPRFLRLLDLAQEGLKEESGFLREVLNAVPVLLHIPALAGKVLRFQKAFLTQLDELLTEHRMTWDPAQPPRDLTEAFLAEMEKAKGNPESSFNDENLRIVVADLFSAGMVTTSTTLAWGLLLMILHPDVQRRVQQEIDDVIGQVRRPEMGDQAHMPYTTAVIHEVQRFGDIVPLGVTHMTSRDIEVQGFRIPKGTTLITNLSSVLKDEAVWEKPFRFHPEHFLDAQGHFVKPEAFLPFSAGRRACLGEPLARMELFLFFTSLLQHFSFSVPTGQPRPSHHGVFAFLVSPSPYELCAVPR
smiles,measurement,setting,value
"CC(C)(C)C#C/C=C/CNCc1cccc2ccccc12.Cl [desmethyl-terbinafine, N-desmethyl-terbinafine hydrochloride]",desmethyl hydroxyterbinafine formation (kinetic constants),CYP2D6,undetected
same,desmethyl hydroxyterbinafine formation (kinetic constants),CYP1A2,undetected
same,desmethyl-terbinafine dihydrodiol formation (kinetic constants),CYP1A2,undetected
same,"6,6-dimethyl-2-hepten-4-yn-1-amine formation (steady-state kinetic constants)",CYP2B6; Step 2.2b,undetected
same,"Vmax, desmethyl hydroxyterbinafine formation",CYP2B6; no saturation,linear
same,"Vmax, desmethyl-terbinafine dihydrodiol formation",CYP2B6; [1],0.59 ± 0.13 μV*sec/min/nmol
same,"Vmax, 1-naphthyl-methylamine formation",CYP2C8; Step 2.2a,85 ± 6.5 pmol/min/nmol protein
same,"6,6-dimethyl-2-hepten-4-yn-1-amine formation (steady-state kinetic constants)",CYP2C8; Step 2.2b,undetected
same,"Vmax, 1-naphthaldehyde formation",CYP2C8; Step 2.2b,300 ± 28 pmol/min/nmol protein
same,desmethyl-terbinafine dihydrodiol formation (kinetic constants),CYP2C8,undetected
same,"Vmax, desmethyl hydroxyterbinafine formation",CYP2C8; [1],0.61 ± 0.04 μV*sec/min/nmol
same,"Vmax, 1-naphthyl-methylamine formation","CYP2C9; CYP2C9, Step 2.2a, substrate desmethyl-terbinafine",330 ± 41 pmol/min/nmol protein
same,"6,6-dimethyl-2-hepten-4-yn-1-amine formation (steady-state kinetic constants)",CYP2C9; [2],undetected
same,"Vmax, 1-naphthaldehyde formation",CYP2C9; [2],69 ± 4.4 pmol/min/nmol protein
same,desmethyl hydroxyterbinafine formation (kinetic constants),"CYP2C9; CYP2C9, substrate desmethyl-terbinafine",undetected
same,"Vmax, desmethyl-terbinafine dihydrodiol formation","CYP2C9; CYP2C9, substrate desmethyl-terbinafine, normalized MS peak area, scaled x10^6",2.0 ± 0.07 μV*sec/min/nmol
same,fold higher efficiency of dihydrodiol formation by CYP2C9 vs CYP2B6,CYP2C9; substrate desmethylterbinafine,50 fold
